Data taken from patent US7741341B2, “Benzimidazole-derivatives as factor Xa inhibitors” (sanofi-aventis Deutschland GmbH, priority 2003, dated 2010).

The compounds below were run against T1, human factor Xa (Homo sapiens, UniProt P00742) (assay: Factor Xa assay (chromogenic, substrate S-2765)). Details: read-out: Ki(FXa).
T1 construct: human factor Xa (Enzyme Research Laboratories, Inc; South Bend, Ind.); purchased Enzyme Research Laboratories, Inc; South Bend, Ind
Format: biochemical
How it was run: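 Purified human factor Xa (0.5 nM final) in TBS-PEG was preincubated 10 min with compound in DMSO-containing buffer. The reaction was started with chromogenic substrate S-2765 at 140 μM. IC50 was taken from the concentration series.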

T1 sequence (P00742 235-488 limits assumed): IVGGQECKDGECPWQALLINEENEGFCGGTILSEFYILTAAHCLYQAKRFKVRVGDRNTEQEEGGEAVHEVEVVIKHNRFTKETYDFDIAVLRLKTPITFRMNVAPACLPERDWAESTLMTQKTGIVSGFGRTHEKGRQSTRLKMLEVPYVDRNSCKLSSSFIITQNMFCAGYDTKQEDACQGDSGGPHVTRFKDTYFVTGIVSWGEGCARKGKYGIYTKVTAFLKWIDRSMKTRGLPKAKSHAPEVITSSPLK
T1 sequence (P00742 41-179 partner limits assumed): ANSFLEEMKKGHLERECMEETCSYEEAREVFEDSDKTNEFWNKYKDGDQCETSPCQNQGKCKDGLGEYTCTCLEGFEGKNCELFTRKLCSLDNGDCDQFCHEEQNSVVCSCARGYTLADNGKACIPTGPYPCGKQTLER

| SMILES | Ki [nM] |
| --- | --- |
| CC(OC(=O)OC1CCCCC1)OC(=O)c1ccc2c(c1)nc(C(=O)NC1CCN(C(C)C)CC1)n2CC(=O)Nc1ccc(Cl)cn1 (stereo not shown) [Example 60, 1-[(5-Chloro-pyridin-2-ylcarbamoyl)-methyl]-2-(1-isopropyl-piperidin-4-ylcarbamoyl)-1H-benzoimidazole-5-carboxylic acid 1-cyclohexyloxycarbonyloxy-ethyl ester] | 35 |
| CC(OC(=O)OC1CCCCC1)OC(=O)c1ccc2nc(C(=O)NC3CCN(C(C)C)CC3)n(CC(=O)Nc3ccc(Cl)cn3)c2c1 (stereo not shown) [Example 61, 3-[(5-Chloro-pyridin-2-ylcarbamoyl)-methyl]-2-(1-isopropyl-piperidin-4-ylcarbamoyl)-3H-benzoimidazole-5-carboxylic acid 1-cyclohexyloxycarbonyloxy-ethyl ester] | 867 |
| CCOC(=O)OC(C)OC(=O)c1ccc2c(c1)nc(C(=O)NC1CCN(C(C)C)CC1)n2CC(=O)Nc1ccc(Cl)cn1 (stereo not shown) [Example 62, 1-[(5-Chloro-pyridin-2-ylcarbamoyl)-methyl]-2-(1-isopropyl-piperidin-4-ylcarbamoyl)-1H-benzoimidazole-5-carboxylic acid 1-ethoxycarbonyloxy-ethyl ester] | 19 |
| CCOC(=O)OC(C)OC(=O)c1ccc2nc(C(=O)NC3CCN(C(C)C)CC3)n(CC(=O)Nc3ccc(Cl)cn3)c2c1 (stereo not shown) [Example 63, 3-[(5-Chloro-pyridin-2-ylcarbamoyl)-methyl]-2-(1-isopropyl-piperidin-4-ylcarbamoyl)-3H-benzoimidazole-5-carboxylic acid 1-ethoxycarbonyloxy-ethyl ester] | 687 |
| CC(C)N1CCC(NC(=O)c2nc3c(C(=O)OCCO)cccc3n2Cc2cc(-c3ccc(Cl)s3)on2)CC1 [Example 64, 1-[5-(5-Chloro-thiophen-2-yl)-isoxazol-3-ylmethyl]-2-(1-isopropyl-piperidin-4-ylcarbamoyl)-1H-benzoimidazole-4-carboxylic acid 2-hydroxy-ethyl ester] | 2 |
| CC(C)N1CCC(NC(=O)c2nc3ccc(C(=O)OCCO)cc3n2Cc2cc(-c3ccc(Cl)s3)on2)CC1 [Example 65, 3-[5-(5-Chloro-thiophen-2-yl)-isoxazol-3-ylmethyl]-2-(1-isopropyl-piperidin-4-ylcarbamoyl)-3H-benzoimidazole-5-carboxylic acid 2-hydroxy-ethyl ester] | 121 |
| CC(C)N1CCC(NC(=O)c2nc3c(C(=O)OCC(=O)O)cccc3n2Cc2cc(-c3ccc(Cl)s3)on2)CC1 [Example 66, 1-[5-(5-Chloro-thiophen-2-yl)-isoxazol-3-ylmethyl]-2-(1-isopropyl-piperidin-4-ylcarbamoyl)-1H-benzoimidazole-4-carboxylic acid carboxymethyl ester] | 3 |
| CC(C)N1CCC(NC(=O)c2nc3c(C(=O)OCC4CC4)cccc3n2CC(=O)Nc2ccc(Cl)cn2)CC1 [Example 69, 1-[(5-Chloro-pyridin-2-ylcarbamoyl)-methyl]-2-(1-isopropyl-piperidin-4-ylcarbamoyl)-1H-benzoimidazole-4-carboxylic acid cyclopropylmethyl ester] | 15 |
| COCCOC(=O)c1cccc2c1nc(C(=O)NC1CCN(C(C)C)CC1)n2CC(=O)Nc1ccc(Cl)cn1 [Example 70, 1-[(5-Chloro-pyridin-2-ylcarbamoyl)-methyl]-2-(1-isopropyl-piperidin-4-ylcarbamoyl)-1H-benzoimidazole-4-carboxylic acid 2-methoxy-ethyl ester] | 15 |
| CC(C)N1CCC(NC(=O)c2nc3c(CO)cccc3n2CC(=O)Nc2ccc(Cl)cn2)CC1 [Example 71, 1-[(5-Chloro-pyridin-2-ylcarbamoyl)-methyl]-4-hydroxymethyl-1H-benzoimidazole-2-carboxylic acid (1-isopropyl-piperidin-4-yl)-amide] | 7 |
| COCCOCc1cccc2c1nc(C(=O)NC1CCN(C(C)C)CC1)n2CC(=O)Nc1ccc(Cl)cn1 [Example 72, 1-[(5-Chloro-pyridin-2-ylcarbamoyl)-methyl]-4-(2-methoxy-ethoxymethyl)-1H-benzoimidazole-2-carboxylic acid (1-isopropyl-piperidin-4-yl)-amide] | 12.5 |
| CC(C)N1CCC(NC(=O)c2nc3c(C(=O)N4CCOCC4)cccc3n2CC(=O)Nc2ccc(Cl)cn2)CC1 [Example 73, 1-[(5-Chloro-pyridin-2-ylcarbamoyl)-methyl]-4-(morpholine-4-carbonyl)-1H-benzoimidazole-2-carboxylic acid (1-isopropyl-piperidin-4-yl)-amide] | 19 |
| CC(C)N1CCC(NC(=O)c2nc3c(C(=O)N4CCCOCC4)cccc3n2CC(=O)Nc2ccc(Cl)cn2)CC1 [Example 74, 1-[(5-Chloro-pyridin-2-ylcarbamoyl)-methyl]-4-([1,4]oxazepane-4-carbonyl)-1H-benzoimidazole-2-carboxylic acid (1-isopropyl-piperidin-4-yl)-amide] | 10.5 |
| CC(C)N1CCC(NC(=O)c2nc3c(C(=O)N4C(C)CCCC4C)cccc3n2CC(=O)Nc2ccc(Cl)cn2)CC1 (stereo not shown) [Example 75, 1-[(5-Chloro-pyridin-2-ylcarbamoyl)-methyl]-4-(2,6-dimethyl-piperidine-1-carbonyl)-1H-benzoimidazole-2-carboxylic acid (1-isopropyl-piperidin-4-yl)-amide] | 2.6 |
| CC(C)N1CCC(NC(=O)c2nc3c(C(=O)N4CCC(F)(F)CC4)cccc3n2CC(=O)Nc2ccc(Cl)cn2)CC1 [Example 76, 1-[(5-Chloro-pyridin-2-ylcarbamoyl)-methyl]-4-(4,4-difluoro-piperidine-1-carbonyl)-1H-benzoimidazole-2-carboxylic acid (1-isopropyl-piperidin-4-yl)-amide] | 8.5 |
| CC(C)N1CCC(NC(=O)c2nc3cc(C(=O)N4CCCOCC4)ccc3n2CC(=O)Nc2ccc(Cl)cn2)CC1 [Example 77, 1-[(5-Chloro-pyridin-2-ylcarbamoyl)-methyl]-5-([1,4]oxazepane-4-carbonyl)-1H-benzoimidazole-2-carboxylic acid (1-isopropyl-piperidin-4-yl)-amide] | 52.5 |
| CC(C)N1CCC(NC(=O)c2nc3cc(C(=O)OCCO)ccc3n2Cc2cc(-c3ccc(Cl)s3)on2)CC1 [Example 78, 1-[5-(5-Chloro-thiophen-2-yl)-isoxazol-3-ylmethyl]-2-(1-isopropyl-piperidin-4-ylcarbamoyl)-1H-benzoimidazole-5-carboxylic acid 2-hydroxy-ethyl ester] | 3.5 |
| CC(C)N1CCC(NC(=O)c2nc3cc(C(=O)OCC(=O)O)ccc3n2Cc2cc(-c3ccc(Cl)s3)on2)CC1 [Example 79, 1-[5-(5-Chloro-thiophen-2-yl)-isoxazol-3-ylmethyl]-2-(1-isopropyl-piperidin-4-ylcarbamoyl)-1H-benzoimidazole-5-carboxylic acid carboxymethyl ester] | 1 |
| COC1CN(C(=O)c2cccc3c2nc(C(=O)NC2CCN(C(C)C)CC2)n3Cc2cc(-c3ccc(Cl)s3)on2)C1 [Example 80, 1-[5-(5-Chloro-thiophen-2-yl)-isoxazol-3-ylmethyl]-4-(3-methoxy-azetidine-1-carbonyl)-1H-benzoimidazole-2-carboxylic acid (1-isopropyl-piperidin-4-yl)-amide] | 7 |
